From US9932314B2, “Pyrazole compounds and their use as T-type calcium channel blockers” (IDORSIA PHARMACEUTICALS LTD, priority 2015, dated 2018) come the findings set out here.

In this test the target is T1, voltage-dependent T-type calcium channel subunit alpha-1G (Cav3.2) (Homo sapiens, UniProt O95180).
T1 construct: expressed in transfected cells; host or cells: HEK293
T1 sequence (O95180 whole entry): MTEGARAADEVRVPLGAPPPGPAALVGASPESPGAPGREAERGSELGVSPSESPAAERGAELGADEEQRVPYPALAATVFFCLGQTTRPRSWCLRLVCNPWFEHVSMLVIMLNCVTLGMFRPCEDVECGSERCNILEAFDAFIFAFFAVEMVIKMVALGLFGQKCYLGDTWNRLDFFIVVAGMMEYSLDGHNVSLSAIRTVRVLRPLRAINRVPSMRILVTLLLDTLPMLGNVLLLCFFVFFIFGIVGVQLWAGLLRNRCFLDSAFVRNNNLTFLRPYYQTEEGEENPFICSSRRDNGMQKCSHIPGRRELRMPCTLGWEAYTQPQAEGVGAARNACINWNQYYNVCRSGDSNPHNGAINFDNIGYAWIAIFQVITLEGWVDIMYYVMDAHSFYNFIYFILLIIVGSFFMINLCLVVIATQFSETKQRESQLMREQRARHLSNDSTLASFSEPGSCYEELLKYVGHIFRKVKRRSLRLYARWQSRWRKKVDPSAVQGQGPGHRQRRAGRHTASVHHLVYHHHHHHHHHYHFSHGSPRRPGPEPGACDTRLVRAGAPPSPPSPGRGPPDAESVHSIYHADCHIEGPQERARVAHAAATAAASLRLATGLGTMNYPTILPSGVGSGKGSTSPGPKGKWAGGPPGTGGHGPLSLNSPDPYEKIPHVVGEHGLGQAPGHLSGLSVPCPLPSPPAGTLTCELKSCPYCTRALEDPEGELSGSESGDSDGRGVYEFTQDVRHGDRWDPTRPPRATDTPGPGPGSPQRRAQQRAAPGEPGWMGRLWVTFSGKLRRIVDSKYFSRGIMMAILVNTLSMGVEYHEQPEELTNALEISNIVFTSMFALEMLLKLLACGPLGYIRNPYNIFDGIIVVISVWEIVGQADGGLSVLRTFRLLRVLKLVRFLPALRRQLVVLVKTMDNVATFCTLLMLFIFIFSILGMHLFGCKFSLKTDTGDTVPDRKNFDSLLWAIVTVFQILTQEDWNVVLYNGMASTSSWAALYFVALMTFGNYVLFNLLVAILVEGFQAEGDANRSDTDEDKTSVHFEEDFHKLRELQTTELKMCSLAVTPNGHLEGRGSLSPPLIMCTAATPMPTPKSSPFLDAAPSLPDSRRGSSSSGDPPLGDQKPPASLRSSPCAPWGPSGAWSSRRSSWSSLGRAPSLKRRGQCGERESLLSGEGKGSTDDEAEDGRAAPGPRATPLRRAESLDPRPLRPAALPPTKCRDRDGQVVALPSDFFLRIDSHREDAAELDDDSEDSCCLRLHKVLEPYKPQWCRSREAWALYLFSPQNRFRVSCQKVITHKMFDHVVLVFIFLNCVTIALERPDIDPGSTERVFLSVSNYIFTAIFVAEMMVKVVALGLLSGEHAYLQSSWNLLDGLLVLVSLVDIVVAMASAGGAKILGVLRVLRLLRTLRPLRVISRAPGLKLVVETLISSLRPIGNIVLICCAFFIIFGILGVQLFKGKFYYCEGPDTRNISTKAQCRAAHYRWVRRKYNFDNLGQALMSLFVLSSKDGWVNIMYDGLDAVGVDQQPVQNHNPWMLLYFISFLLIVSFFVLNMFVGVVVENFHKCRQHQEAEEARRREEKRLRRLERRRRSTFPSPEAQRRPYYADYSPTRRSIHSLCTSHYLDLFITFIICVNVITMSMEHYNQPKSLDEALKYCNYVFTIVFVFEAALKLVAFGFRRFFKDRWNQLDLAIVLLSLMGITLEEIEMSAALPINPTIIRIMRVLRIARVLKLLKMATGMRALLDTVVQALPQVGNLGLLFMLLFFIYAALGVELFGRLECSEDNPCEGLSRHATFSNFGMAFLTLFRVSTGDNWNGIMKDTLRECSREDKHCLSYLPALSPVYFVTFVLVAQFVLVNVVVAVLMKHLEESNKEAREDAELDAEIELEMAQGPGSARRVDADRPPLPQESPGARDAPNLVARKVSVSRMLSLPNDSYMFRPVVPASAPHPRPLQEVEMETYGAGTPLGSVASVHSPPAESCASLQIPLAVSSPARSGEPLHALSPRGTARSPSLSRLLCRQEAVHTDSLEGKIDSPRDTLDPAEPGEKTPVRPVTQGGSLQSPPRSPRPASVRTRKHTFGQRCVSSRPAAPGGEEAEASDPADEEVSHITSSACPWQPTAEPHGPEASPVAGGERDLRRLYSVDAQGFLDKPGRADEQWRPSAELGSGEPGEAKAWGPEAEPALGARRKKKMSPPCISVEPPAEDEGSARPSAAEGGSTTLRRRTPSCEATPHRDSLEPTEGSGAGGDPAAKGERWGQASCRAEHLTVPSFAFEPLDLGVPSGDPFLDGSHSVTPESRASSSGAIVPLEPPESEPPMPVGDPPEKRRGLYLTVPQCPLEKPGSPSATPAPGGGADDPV
The test is described as follows: FLIPR calcium flux assay, HEK293 cells recombinantly expressing Cav3.2. Type of test: cell-based. The following applies: Cav3.2-channel, Fluo-4-AM, 3 min incubation, stimulation with 10 mM CaCl2. The protocol:
In Vitro Methods—Measurement of Calcium Channel Flux by Means of FLIPR Assays.
HEK293 cells recombinantly expressing either voltage-dependent T-type calcium channel subunit […] (Cav3.2) or voltage-dependent L-type calcium channel subunit alpha-1C (Cav1.2) are assayed for calcium flux using the calcium indicator dye Fluo-4-AM (Molecular Devices) and FLIPR technology (Fluorometric Imaging Plate Reader, Molecular Devices) (Xie X, Van Deusen A L, Vitko I, Babu D A, Davies L A, Huynh N, Cheng H, Yang N, Barrett P Q, Perez-Reyes E. Validation of high throughput screening assays against three subtypes of Ca(v)3 T-type channels using molecular and pharmacologic approaches. Assay and Drug Development Technologies 2007, 5(2), 191-203). The HEK293 cells recombinantly expressing Cav3.2 are maintained in DMEM growth medium (Life Technologies) supplemented with 10% Fetal Bovine Serum (FBS), 100 U/ml penicilin (Life Technologies), 100 μg/ml streptomycin (Life Technologies) and 1 mg/ml G418 (Life Technologies). HEK293 cells recombinantly expressing Cav1.2 are maintained in DMEM growth medium (Life technologies) supplemented with 10% FBS, 0.1 mg/ml G418 (Life Technologies), 0.1 mg/ml hygromycin (Life Technologies) and 40 ug/ml zeocin (Life Technologies).
The seeded plates are incubated overnight at 37° C.
The cells are then washed three times with assay buffer (HBSS 1×; 0.375 g/L NaHCO3; 20 mM Hepes; 1% FBS; pH 7.4) and allowed to rest in 50 μl of wash buffer for 30 minutes.
Stock solutions of test compounds are prepared to a concentration of 10 mM in DMSO. For the Cav3.2 assay, serial dilutions of the compounds are prepared in TEAC buffer (100 mM tetraethylammonium chloride; 20 mM Hepes; 2.5 mM CaCl2; 5 mM KCl; 1 mM MgCl2; 1% FBS; pH 7.2), for the Cav1.2 assay serial dilutions are prepared in assay buffer. […] The compounds are incubated with the cells for 3 minutes and Ca2+ entry is stimulated by adding either CaCl2 to a final concentration of 10 mM (Cav3.2 assay) or by adding KCl to a final concentration of 20 mM (Cav1.2 assay). The kinetics of fluorescence increase are recorded for every well and the area under the fluorescence trace for every compound concentration is used to generate inhibition curves using non-linear regression sigmoidal concentration-response curve analysis with in-house software.
In general terms: A change in cytosolic calcium serves as a functional read-out for many receptors and channels.
Regarding `COC(C)c1ccc(CC(=O)Nc2ccn(Cc3ccc(F)cc3)n2)cc1` (racemic) [Example 201, rac-N-[1-(4-Fluoro-benzyl)-1H-pyrazol-3-yl]-2-[4-(1-methoxy-ethyl)-phenyl]-acetamide], the IC50 – broadly, the concentration needed to halve the response being measured – came out at 30 nM.
For `COC(C)c1ccc(CC(=O)Nc2ccn(Cc3ccc(F)c(F)c3)n2)cc1` (racemic) [Example 202, rac-N-[1-(3,4-Difluoro-benzyl)-1H-pyrazol-3-yl]-2-[4-(1-methoxy-ethyl)-phenyl]-acetamide] the value was 16 nM; for `COC(C)c1ccc(CC(=O)Nc2ccn(Cc3ccc(C#N)cn3)n2)cc1` (racemic) [Example 203, rac-N-[1-(5-Cyano-pyridin-2-ylmethyl)-1H-pyrazol-3-yl]-2-[4-(1-methoxy-ethyl)-phenyl]acetamide], 1260 nM.
For `COC(C)c1ccc(CC(=O)Nc2ccn(Cc3ccc(F)c(C#N)c3)n2)cc1` (racemic) [Example 319, rac-N-[1-(3-Cyano-4-fluoro-benzyl)-1H-pyrazol-3-yl]-2-[4-(1-methoxy-ethyl)-phenyl]-acetamide] the value was 66 nM; for `COC(C)c1ccc(CC(=O)Nc2ccn(Cc3ccc(C#N)cc3)n2)cc1` (racemic) [Example 320, rac-N-[1-(4-Cyano-benzyl)-1H-pyrazol-3-yl]-2-[4-(1-methoxy-ethyl)-phenyl]-acetamide], 99 nM; for `N#Cc1ccc(Cn2ccc(NC(=O)Cc3ccc([C@@H]4C[C@H]4C(F)(F)F)cc3)n2)nc1` (racemic) [Example 383, rac-N-[1-(5-Cyano-pyridin-2-ylmethyl)-1H-pyrazol-3-yl]-2-[4-((1R*,2R*)-2-trifluoromethyl-cyclopropyl)-phenyl]-acetamide], 36 nM.
With `CC1COc2cc(CC(=O)Nc3ccn(Cc4ccc(C#N)cn4)n3)ccc2C1` (racemic) [Example 388, rac-N-[1-(5-Cyano-pyridin-2-ylmethyl)-1H-pyrazol-3-yl]-2-(3-methyl-chroman-7-yl)-acetamide], the IC50 came to 30 nM.
For `CO[C@H](C)c1ccc(CC(=O)Nc2ccn(Cc3ccc(F)c(F)c3)n2)cc1` (single isomer, unassigned) [Example 232] the value was 5.8 nM.
For the compound `CO[C@@H](C)c1ccc(CC(=O)Nc2ccn(Cc3ccc(F)c(F)c3)n2)cc1` (single isomer, unassigned) [Example 233], the half-maximal inhibitory concentration (IC50) came out at 8.1 nM.
As to `CC(C)c1ccc(CC(=O)Nc2ccn(Cc3ccc(Cl)cc3)n2)cc1` [Example 1, N-[1-(4-Chloro-benzyl)-1H-pyrazol-3-yl]-2-(4-isopropyl-phenyl)-acetamide], the IC50 came out at 14 nM.
In the case of `CN(C)c1ccc(CC(=O)Nc2ccn(Cc3ccc(F)cc3)n2)cn1` [Example 4, 2-(6-Dimethylamino-pyridin-3-yl)-N-[1-(4-fluoro-benzyl)-1H-pyrazol-3-yl]-acetamide] it was 82 nM; in that of `CN(C)c1ccc(CC(=O)Nc2ccn(Cc3ccc(Cl)cc3)n2)cn1` [Example 5, N-[1-(4-Chloro-benzyl)-1H-pyrazol-3-yl]-2-(6-dimethylamino-pyridin-3-yl)-acetamide], 20 nM; in that of `CC(C)c1ccc(CC(=O)Nc2ccn(Cc3ccc(F)cc3)n2)cc1` [Example 6, N-[1-(4-Fluoro-benzyl)-1H-pyrazol-3-yl]-2-(4-isopropyl-phenyl)-acetamide], 6.6 nM.
For the compound `COc1ccc(Cn2ccc(NC(=O)Cc3ccc(C(C)C)cc3)n2)cc1` [Example 7, 2-(4-Isopropyl-phenyl)-N-[1-(4-methoxy-benzyl)-1H-pyrazol-3-yl]-acetamide], the IC50 came out at 7.9 nM.
For `Cc1ccc(Cn2ccc(NC(=O)Cc3ccc(C(C)C)cc3)n2)cc1` [Example 9, 2-(4-Isopropyl-phenyl)-N-[1-(4-methyl-benzyl)-1H-pyrazol-3-yl]-acetamide] the value was 12 nM.
`CC(C)c1ccc(CC(=O)Nc2ccn(Cc3ccc(C#N)cc3)n2)cc1` [Example 11, N-[1-(4-Cyano-benzyl)-1H-pyrazol-3-yl]-2-(4-isopropyl-phenyl)-acetamide]: the IC50 was determined as 5.4 nM.
With `Cc1ccc(Cn2ccc(NC(=O)Cc3ccc(N(C)C)nc3)n2)cc1` [Example 13, 2-(6-Dimethylamino-pyridin-3-yl)-N-[1-(4-methyl-benzyl)-1H-pyrazol-3-yl]-acetamide], the IC50 amounted to 133 nM.
As to `COc1ccc(Cn2ccc(NC(=O)Cc3ccc(N(C)C)nc3)n2)cc1` [Example 14, 2-(6-Dimethylamino-pyridin-3-yl)-N-[1-(4-methoxy-benzyl)-1H-pyrazol-3-yl]-acetamide], the IC50 came to 650 nM.
In the case of `CN(C)c1ccc(CC(=O)Nc2ccn(Cc3ccc(C#N)cc3)n2)cn1` [Example 15, N-[1-(4-Cyano-benzyl)-1H-pyrazol-3-yl]-2-(6-dimethylamino-pyridin-3-yl)-acetamide] it was 374 nM.
Consider `CCc1ccc(Cn2ccc(NC(=O)Cc3ccc(N(C)C)cc3)n2)cc1` [Example 16, 2-(4-Dimethylamino-phenyl)-N-[1-(4-ethyl-benzyl)-1H-pyrazol-3-yl]-acetamide], for which the IC50 is 10 nM.
`CC(C)c1ccc(Cn2ccc(NC(=O)Cc3ccc(N(C)C)cc3)n2)cc1` [Example 17, 2-(4-Dimethylamino-phenyl)-N-[1-(4-isopropyl-benzyl)-1H-pyrazol-3-yl]-acetamide]: the IC50 came to 12 nM.
For `CN(C)c1ccc(CC(=O)Nc2ccn(Cc3ccc(C(C)(C)C)cc3)n2)cc1` [Example 18, N-[1-(4-tert-Butyl-benzyl)-1H-pyrazol-3-yl]-2-(4-dimethylamino-phenyl)-acetamide] the value was 25 nM.
For `CN(C)c1ccc(CC(=O)Nc2ccn(Cc3ccc(F)c(OC(F)(F)F)c3)n2)cc1` [Example 22, 2-(4-Dimethylamino-phenyl)-N-[1-(4-fluoro-3-trifluoromethoxy-benzyl)-1H-pyrazol-3-yl]-acetamide] the value was 5 nM; for `CN(C)c1ccc(CC(=O)Nc2ccn(Cc3ccc(F)c(C(F)(F)F)c3)n2)cc1` [Example 23, 2-(4-Dimethylamino-phenyl)-N-[1-(4-fluoro-3-trifluoromethyl-benzyl)-1H-pyrazol-3-yl]-acetamide], 6.4 nM; for `CN(C)c1ccc(CC(=O)Nc2ccn(Cc3cc(F)c(F)c(F)c3)n2)cc1` [Example 24, 2-(4-Dimethylamino-phenyl)-N-[1-(3,4,5-trifluoro-benzyl)-1H-pyrazol-3-yl]-acetamide], 13 nM.
Consider `Cc1cc(Cn2ccc(NC(=O)Cc3ccc(N(C)C)cc3)n2)cc(C)c1F` [Example 25, 2-(4-Dimethylamino-phenyl)-N-[1-(4-fluoro-3,5-dimethyl-benzyl)-1H-pyrazol-3-yl]-acetamide], for which the IC50 worked out at 64 nM.
In the case of `CN(C)c1ccc(CC(=O)Nc2ccn(Cc3ccc(Cl)c(F)c3)n2)cc1` [Example 26, N-[1-(4-Chloro-3-fluoro-benzyl)-1H-pyrazol-3-yl]-2-(4-dimethylamino-phenyl)-acetamide] it was 5.4 nM.
Consider `CN(C)c1ccc(CC(=O)Nc2ccn(Cc3ccc(Cl)c(C(F)(F)F)c3)n2)cc1` [Example 27, N-[1-(4-Chloro-3-trifluoromethyl-benzyl)-1H-pyrazol-3-yl]-2-(4-dimethylamino-phenyl)-acetamide], for which the IC50 stood at 61 nM.
Consider `COc1ccc(Cn2ccc(NC(=O)Cc3ccc(N(C)C)cc3)n2)cc1C(F)(F)F` [Example 29, 2-(4-Dimethylamino-phenyl)-N-[1-(4-methoxy-3-trifluoromethyl-benzyl)-1H-pyrazol-3-yl]-acetamide], for which the IC50 was 25 nM.
With `Cc1cc(Cn2ccc(NC(=O)Cc3ccc(N(C)C)cc3)n2)ccc1F` [Example 30, 2-(4-Dimethylamino-phenyl)-N-[1-(4-fluoro-3-methyl-benzyl)-1H-pyrazol-3-yl]-acetamide], the half-maximal inhibitory concentration (IC50) amounted to 8.6 nM.
For `CN(C)c1ccc(CC(=O)Nc2ccn(Cc3ccc(F)c(Cl)c3)n2)cc1` [Example 31, N-[1-(3-Chloro-4-fluoro-benzyl)-1H-pyrazol-3-yl]-2-(4-dimethylamino-phenyl)-acetamide] the value was 4 nM; for `Cc1ccc(Cn2ccc(NC(=O)Cc3ccc(N(C)C)cc3)n2)cc1F` [Example 32, 2-(4-Dimethylamino-phenyl)-N-[1-(3-fluoro-4-methyl-benzyl)-1H-pyrazol-3-yl]-acetamide], 7.6 nM; for `CN(C)c1ccc(CC(=O)Nc2ccn(Cc3ccc(C#N)cn3)n2)cc1` [Example 33, N-[1-(5-Cyano-pyridin-2-ylmethyl)-1H-pyrazol-3-yl]-2-(4-dimethylamino-phenyl)-acetamide], 101 nM.
